Where no end group is shown, it is not given here.
Legend:
[1] = system: E. coli ATCC 11229; assay: Agar diffusion test of pre-soaked paper towel; assay type: cell-based, Escherichia coli; settings: FIG. 5
Excerpt: The antimicrobial activity of the compositions as described herein on a cellulosic substrate could be determined by soaking the cellulosic substrate in the compositions to be tested and plating the cellulosic substrate on agar. An agar diffusion test could then be performed.
The agar well diffusion method previously described by Tagg et al. 1976 was applied as a rapid method to detect the inhibitory activity of the compounds directly (as a solution) or after immobilization on paper towel. Briefly, 25 mL of sterile TSB with 0.8% (w/v) agar was seeded with 150 μL of an overnight culture of one of the target sensitive strains and poured into a sterile Petri dish (Starstedt Inc., Montreal, Canada). The Petri dishes were kept for 20 min at room temperature under sterile conditions to allow agar solidification. Wells 7 mm in diameter were then cut in the solidified agar using the wide end of a sterile 5-mL pipette. Each well was filled with 80 μL of the compound or mixture to be tested. In the case of pre-soaked paper towel, circles 1 cm in diameter were cut and deposited directly on the solidified agar. All plates were incubated at 30° C. for 18 h and the diameter of the zone of inhibition was measured.
The aim of this experiment was to study the inhibition of bacterial growth by the antimicrobial Mix I and II in association with paper towels.

[2] = system: Listeria ivanovii HPB28; assay: Growth curves by microplate microdilution method; assay type: cell-based; settings: for Reduction of growth, taken separately compared with combined (Mix I): FIG. 2B, lactic acid (0.125%), citric acid (0.0625%) and pediocin; for Reduction of growth, taken separately compared with combined (Mix II): FIG. 1B; for Inhibition (growth curves): FIGS. 1B, 2, compounds alone at citric acid 0.25%, lactic acid 0.25%, reuterin 1.25%, or combined as Mix
Method: (§1) The inhibitory activity of the various antimicrobial compounds alone or in combination was assayed using the microtiter plate critical dilution method with two-fold serial dilutions in TSB (Turcotte et al., 2004). The 100-μL carry-over volume was drawn into the multi-channel pipette four times between each dilution. Wells were then seeded with 40 μL of target strain overnight culture diluted 1,000 fold. The plates (MIC-2000 U-Bottom Microtiter® Plates; Thermo Labsystems, Franklin, Mass., USA) were incubated at 30° C. for 18 h before reading the optical density at 650 nm using a Thermomax microplate reader (Molecular Devices, Opti-Resources, Charny, QC, Canada).
(§2) One arbitrary unit (AU) was defined as a 100-μL portion of the highest dilution of tested sample that inhibited growth in a well after 18 h of incubation (Daba et al, 1993). […] The number of AU per ml is thus […], where n=number of inhibited wells.

[3] = system: E. coli ATCC 11229; assay: Growth curves by microplate microdilution method; assay type: cell-based, Escherichia coli; settings: for Reduction of growth, taken separately compared with combined (Mix II): FIG. 1A; for Inhibition (growth curves): FIGS. 1A, 2, compounds alone at citric acid 0.25%, lactic acid 0.25%, reuterin 1.25%, or combined as Mix
Method: as §1, §2

| Molecule | Inhibition of bacterial growth, individually compared with Mix I and Mix II [1] | Reduction of growth, taken separately compared with combined (Mix I) [2] | Reduction of growth, taken separately compared with combined (Mix II) [3] | Inhibition (growth curves) [3] | Reduction of growth, taken separately compared with combined (Mix II) [2] | Inhibition (growth curves) [2] |
| --- | --- | --- | --- | --- | --- | --- |
| CC(=O)O [acetic acid] | do not inhibit E. Coli ATCC 11229 bacterial growth as efficiently as Mix I |  |  |  |  |  |
| pediocin: Fresh pediocin extract; class IIa bacteriocin produced by lactic acid bacteria (KYYGNGVTCGKHSCSVDWGKATTCIINNGAMAWATGGHQGNHKC; ends and bridges not checked; cysteine pairing not given here; UniProt P29430 19-62, looked up) | do not inhibit E. Coli ATCC 11229 bacterial growth as efficiently as Mix I | do not reduce the growth of Listeria ivanovii HPB28 as efficiently |  |  |  |  |
| CC(O)C(=O)O (centres unmarked) [lactic acid] | do not inhibit E. Coli ATCC 11229 bacterial growth as efficiently as Mix I | do not reduce the growth of Listeria ivanovii HPB28 as efficiently | do not reduce the growth of E. Coli ATCC 11229 or Listeria ivanovii HPB28 as efficiently | partial and non-significant inhibition | do not reduce the growth of E. Coli ATCC 11229 or Listeria ivanovii HPB28 as efficiently | partial and non-significant inhibition |
| O=C(O)CC(O)(CC(=O)O)C(=O)O [citric acid] |  | do not reduce the growth of Listeria ivanovii HPB28 as efficiently | do not reduce the growth of E. Coli ATCC 11229 or Listeria ivanovii HPB28 as efficiently | partial and non-significant inhibition | do not reduce the growth of E. Coli ATCC 11229 or Listeria ivanovii HPB28 as efficiently | partial and non-significant inhibition |

Source: US9642362B2, “Antimicrobial compositions and uses thereof” (CASCADES CANADA ULC, priority 2012, dated 2017)
